# Biological target: BoNT/A LC1-429 (Clostridium botulinum, UniProt P0DPI1)
# Test: biochemical
# Conditions: BoNT/A Ki (nM)
# Chain of BoNT/A LC1-429 (P0DPI1 1-429, added parts left off): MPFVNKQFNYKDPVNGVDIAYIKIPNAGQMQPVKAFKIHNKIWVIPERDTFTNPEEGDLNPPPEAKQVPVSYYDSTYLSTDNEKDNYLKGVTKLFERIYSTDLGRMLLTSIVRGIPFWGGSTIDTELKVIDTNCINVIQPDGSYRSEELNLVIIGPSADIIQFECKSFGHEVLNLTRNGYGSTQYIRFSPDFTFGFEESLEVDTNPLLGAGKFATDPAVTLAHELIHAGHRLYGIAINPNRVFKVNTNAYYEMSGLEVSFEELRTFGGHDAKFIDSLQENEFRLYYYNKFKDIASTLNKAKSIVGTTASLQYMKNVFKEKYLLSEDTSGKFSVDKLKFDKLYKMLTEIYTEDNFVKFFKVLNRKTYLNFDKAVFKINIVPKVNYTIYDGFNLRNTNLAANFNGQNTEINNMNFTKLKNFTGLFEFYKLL
row,SMILES,Ki
1,"CO[C@H](CC(=O)NO)[C@H](Cc1ccc(F)cc1)c1ccc(Br)cc1 [Example 1-3, (3R,4R)-4-(4-bromophenyl)-5-(4-fluorophenyl)-N-hydroxy-3-methoxypentanamide]",9.36 nM
2,"CCO[C@H](CC(=O)NO)[C@H](Cc1ccc(CO)cc1)c1ccc(F)cc1 [Example 1-9, (3R,4R)-3-ethoxy-4-(4-fluorophenyl)-N-hydroxy-5-(4-(hydroxymethyl)phenyl)pentanamide]",299 nM
3,"CO[C@H](CC(=O)NO)[C@H](Cc1ccc(F)cc1C)c1ccc(Br)cc1 [Example 2-1, (3R,4R)-4-(4-bromophenyl)-5-(4-fluoro-2-methylphenyl)-N-hydroxy-3-methoxypentanamide]",235 nM
4,"CO[C@H](CC(=O)NO)[C@H](Cc1ccc(F)c(C)c1)c1ccc(Br)cc1 [Example 2-2, (3R,4R)-4-(4-bromophenyl)-5-(4-fluoro-3-methylphenyl)-N-hydroxy-3-methoxypentanamide]",3.4 nM
5,"CO[C@@H](CC(=O)NO)[C@H](Cc1ccc(F)cc1C)c1ccc(Br)cc1 [Example 2-3, (3S,4R)-4-(4-bromophenyl)-5-(4-fluoro-2-methylphenyl)-N-hydroxy-3-methoxypentanamide]",4860 nM
6,"CO[C@@H](CC(=O)NO)[C@H](Cc1ccc(F)c(C)c1)c1ccc(Br)cc1 [Example 2-4, (3S,4R)-4-(4-bromophenyl)-5-(4-fluoro-3-methylphenyl)-N-hydroxy-3-methoxypentanamide]",145 nM
7,"CCO[C@H](CC(=O)NO)[C@H](Cc1ccc(Cl)cc1)c1ccccc1 [Example 3-1, (3R,4R)-5-(4-chlorophenyl)-3-ethoxy-N-hydroxy-4-phenylpentanamide]",15.5 nM
8,O=C(CC[C@H](Cc1ccc(Cl)cc1)c1ccccc1)NO [Example 3-2],2700 nM
9,O=C(CC[C@H](Cc1ccc(Cl)cc1)c1ccc(Br)cc1)NO [Example 3-3],915 nM
10,"CO[C@H](CC(=O)NO)[C@H](Cc1ccc(Cl)cc1)c1ccc(Cl)cc1 [Example 3-4, (3R,4R)-4,5-bis(4-chlorophenyl)-N-hydroxy-3-methoxypentanamide]",4.8 nM
11,"CO[C@H](CC(=O)NO)[C@H](Cc1ccc(Cl)cc1)c1ccc(F)cc1 [Example 3-5, (3R,4R)-5-(4-chlorophenyl)-4-(4-fluorophenyl)-N-hydroxy-3-methoxypentanamide]",5.2 nM
12,"CCO[C@H](CC(=O)NO)[C@H](Cc1ccc(Cl)cc1)c1ccc(Br)cc1 [Example 3-6, (3R,4R)-4-(4-bromophenyl)-5-(4-chlorophenyl)-3-ethoxy-N-hydroxypentanamide]",2 ± 0.42 nM
13,"CCO[C@@H](CC(=O)NO)[C@H](Cc1ccc(Cl)cc1)c1ccc(Br)cc1 [Example 3-7, (3S,4R)-4-(4-bromophenyl)-5-(4-chlorophenyl)-3-ethoxy-N-hydroxypentanamide]",73 nM
14,"CO[C@H](CC(=O)NO)[C@H](Cc1ccc(Cl)cc1)c1ccc(Br)cc1 [Example 3-8, (3R,4R)-4-(4-bromophenyl)-5-(4-chlorophenyl)-N-hydroxy-3-methoxypentanamide]",1.75 nM
15,"C=Cc1ccc([C@@H](Cc2ccc(Cl)cc2)[C@@H](CC(=O)NO)OCC)cc1 [Example 3-9, (3R,4R)-5-(4-chlorophenyl)-3-ethoxy-N-hydroxy-4-(4-vinylphenyl)pentanamide]",3.2 nM
16,"CCO[C@H](CC(=O)NO)[C@H](Cc1ccc(Cl)cc1)c1ccc(CO)cc1 [Example 3-10, (3R,4R)-5-(4-chlorophenyl)-3-ethoxy-N-hydroxy-4-(4-(hydroxymethyl)phenyl)pentanamide]",2.7 nM
17,"CO[C@H](CC(=O)NO)[C@H](Cc1ccc(Cl)cc1)c1ccc(CO)cc1 [Example 3-11, (3R,4R)-5-(4-chlorophenyl)-N-hydroxy-4-(4-(hydroxymethyl)phenyl)-3-methoxypentanamide]",9.7 nM
18,"CCO[C@H](CC(=O)NO)[C@H](Cc1ccc(Cl)cc1)c1ccc(C2(C)CO2)cc1 (stereo partly drawn) [Example 3-12, (3R,4R)-5-(4-chlorophenyl)-3-ethoxy-N-hydroxy-4-(4-(2-methyloxiran-2-yl)phenyl)pentanamide]",9.6 nM
19,CCCCOCc1ccc([C@@H](Cc2ccc(Cl)cc2)[C@@H](CC(=O)NO)OC)cc1 [Example 3-13],24.9 nM
20,CCO[C@H](CC(=O)NO)[C@H](Cc1ccc(Cl)cc1)c1ccc(COCOC)cc1 [Example 3-14],21.2 nM
21,CCO[C@H](CC(=O)NO)[C@H](Cc1ccc(Cl)cc1)c1ccc(COCOCCOC)cc1 [Example 3-15],30 nM

row,SMILES,Ki
1,"CCO[C@H](CC(=O)NO)[C@H](Cc1ccc(Cl)cc1)c1ccc(CN2CCOCC2)cc1 [Example 3-16, (3R,4R)-5-(4-chlorophenyl)-3-ethoxy-N-hydroxy-4-(4-(morpholinomethyl)phenyl) pentanamide]",10.1 ± 2.4 nM
2,"CCO[C@H](CC(=O)NO)[C@H](Cc1ccc(Cl)cc1)c1ccc(CN2CCN(C(=O)OC(C)(C)C)CC2)cc1 [Example 3-17, tert-butyl 4-(4-((2R,3R)-1-(4-chlorophenyl)-3-ethoxy-5-(hydroxyamino)-5-oxopentan-2-yl)benzyl)piperazine-1-carboxylate]",8.5 nM
3,"CCO[C@H](CC(=O)NO)[C@H](Cc1ccc(Cl)cc1)c1ccc(CN2CCNCC2)cc1 [Example 3-18, (3R,4R)-5-(4-chlorophenyl)-3-ethoxy-N-hydroxy-4-(4-(piperazin-1-ylmethyl)phenyl)pentanamide]",13.5 ± 2.8 nM
4,"CCO[C@H](CC(=O)NO)[C@H](Cc1ccc(Cl)cc1)c1ccc(CN2CCCCC2)cc1 [Example 3-19, (3R,4R)-5-(4-chlorophenyl)-3-ethoxy-N-hydroxy-4-(4-(piperidin-1-ylmethyl)phenyl)pentanamide]",19.5 nM
5,"CO[C@H](CC(=O)NO)[C@H](Cc1ccc(Cl)cc1)c1ccc(CN2CCCCC2)cc1 [Example 3-20, (3R,4R)-5-(4-chlorophenyl)-N-hydroxy-3-methoxy-4-(4-(piperidin-1-ylmethyl)phenyl)pentanamide]",37 nM
6,"CCO[C@H](CC(=O)NO)[C@H](Cc1ccc(Cl)cc1)c1ccc(N(C)CCO)cc1 [Example 3-21, (3R,4R)-5-(4-chlorophenyl)-3-ethoxy-N-hydroxy-4-(4-((2-hydroxyethyl)(methyl)amino)phenyl)pentanamide]",8.5 nM
7,"CCO[C@H](CC(=O)NO)[C@H](Cc1ccc(Cl)cc1)c1ccc(N2CCNCC2)cc1 [Example 3-22, (3R,4R)-5-(4-chlorophenyl)-3-ethoxy-N-hydroxy-4-(4-(piperazin-1-yl)phenyl)pentanamide]",13.5 nM
8,"CCO[C@H](CC(=O)NO)[C@H](Cc1ccc(Cl)cc1)c1ccc(N2CCOCC2)cc1 [Example 3-23, (3R,4R)-5-(4-chlorophenyl)-3-ethoxy-N-hydroxy-4-(4-morpholinophenyl)pentanamide]",10 nM
9,"CCO[C@H](CC(=O)NO)[C@H](Cc1ccc(Cl)cc1)c1ccc(-c2cccn2C(=O)OC(C)(C)C)cc1 [Example 3-24, tert-butyl 2-(4-((2R,3R)-1-(4-chlorophenyl)-3-ethoxy-5-(hydroxyamino)-5-oxopentan-2-yl)phenyl)-1H-pyrrole-1-carboxylate]",8.8 nM
10,"CCO[C@H](CC(=O)NO)[C@H](Cc1ccc(Cl)cc1)c1ccc(-c2ccc[nH]2)cc1 [Example 3-25, (3R,4R)-4-(4-(1H-pyrrol-2-yl)phenyl)-5-(4-chlorophenyl)-3-ethoxy-N-hydroxypentanamide]",8 nM
11,"CCO[C@H](CC(=O)NO)[C@H](Cc1ccc(Cl)cc1)c1ccc(-c2cncnc2)cc1 [Example 3-26, (3R,4R)-5-(4-chlorophenyl)-3-ethoxy-N-hydroxy-4-(4-(pyrimidin-5-yl)phenyl)pentanamide]",3.7 nM
12,"CCO[C@H](CC(=O)NO)[C@H](Cc1ccc(Cl)cc1)c1ccc(-c2cnc(N(C)C)nc2)cc1 [Example 3-27, (3R,4R)-5-(4-chlorophenyl)-4-(4-(2-(dimethylamino)pyrimidin-5-yl)phenyl)-3-ethoxy-N-hydroxypentanamide]",5.3 nM
13,"CCO[C@H](CC(=O)NO)[C@H](Cc1ccc(Cl)cc1)c1ccc(-c2c(C)nn(C)c2C)cc1 [Example 3-28, (3R,4R)-5-(4-chlorophenyl)-3-ethoxy-N-hydroxy-4-(4-(1,3,5-trimethyl-1H-pyrazol-4-yl)phenyl)pentanamide]",3.7 nM
14,"CCO[C@H](CC(=O)NO)[C@H](Cc1ccc(Cl)cc1)c1ccc(-n2ccnc2)cc1 [Example 3-29, (3R,4R)-4-(4-(1H-imidazol-1-yl)phenyl)-5-(4-chlorophenyl)-3-ethoxy-N-hydroxypentanamide]",3.6 nM
15,"CCO[C@H](CC(=O)NO)[C@H](Cc1ccc(Cl)cc1)c1ccc(-c2ccncc2)cc1 [Example 3-30, (3R,4R)-5-(4-chlorophenyl)-3-ethoxy-N-hydroxy-4-(4-(pyridin-4-yl)phenyl)pentanamide]",4.5 nM
16,"CCO[C@H](CC(=O)NO)[C@H](Cc1ccc(Cl)cc1)c1ccc(C(=O)NO)cc1 [Example 4-1, 4-((2R,3R)-1-(4-chlorophenyl)-3-ethoxy-5-(hydroxyamino)-5-oxopentan-2-yl)-N-hydroxybenzamide]",10.5 nM
17,"CCCN(CCC)C(=O)c1ccc([C@@H](Cc2ccc(Cl)cc2)[C@@H](CC(=O)NO)OCC)cc1 [Example 4-2, 4-((2R,3R)-1-(4-chlorophenyl)-3-ethoxy-5-(hydroxyamino)-5-oxopentan-2-yl)-N,N-dipropylbenzamide]",3.9 nM
18,"CCO[C@H](CC(=O)NO)[C@H](Cc1ccc(Cl)cc1)c1ccc(C(=O)N2CCCCC2)cc1 [Example 4-3, (3R,4R)-5-(4-chlorophenyl)-3-ethoxy-N-hydroxy-4-(4-(piperidine-1-carbonyl)phenyl)pentanamide]",4.3 ± 2 nM
19,"CCO[C@H](CC(=O)NO)[C@H](Cc1ccc(Cl)cc1)c1ccc(C(=O)N(C)CCO)cc1 [Example 4-4, 4-((2R,3R)-1-(4-chlorophenyl)-3-ethoxy-5-(hydroxyamino)-5-oxopentan-2-yl)-N-(2-hydroxyethyl)-N-methylbenzamide]",9.8 ± 3.7 nM
20,"CCO[C@H](CC(=O)NO)[C@H](Cc1ccc(Cl)cc1)c1ccc(C(=O)N2CCOCC2)cc1 [Example 4-5, (3R,4R)-5-(4-chlorophenyl)-3-ethoxy-N-hydroxy-4-(4-(morpholine-4-carbonyl)phenyl)pentanamide]",5.8 ± 1.1 nM

# Source: US9505710B2 (priority 2015, dated 2016)
